Measured values taken from patent publication US20180071313A1, “DRY EYE THERAPEUTIC AGENT […] ESTER THEREOF OR M[…] ESTER THEREOF AS AN ACTIVE INGREDIENT” (SANTEN PHARMACEUTICAL CO., LTD., priority 2015, published 2018).

Legend:
[1] = test system: lipophilin CL2 (L-CL2) gene; assay: Pharmacological Study (2): expression level of lipophilin CL2 (L-CL2) gene in lacrimal gland cells, quantitative PCR; format: cell-based, rabbits (Japanese White, females); details: isolated rabbit lacrimal gland cells, drug culture for 2 days, 0.1% DMSO; FIG. 3
Protocol: A comparative study of the action of increasing the expression level of lipophilin CL2 (L-CL2) gene by both nandrolone decanoate and methenolone acetate was conducted by allowing both drugs to act on lacrimal gland tissue cells. Furthermore, lipophilins are proteins that are synthesized in the lacrimal gland and are observed to be present in large amounts in the tears of humans and rabbits.
Each drug was dissolved in DMSO followed by diluting with DMEM/F-12 (D/F medium) to a final DMSO concentration of 0.1%. […]
Quantitative PCR was carried out by using primers designed by respectively joining to cDNA synthesized from the drug-treated lacrimal gland cells using the CellAmp Direct RNA Prep Kit and PrimeScript RT MasterMix (both manufactured by Takara Bio, Inc.), the QuantiFast SYBR Green PCR Kit (Qiagen Corp.), Rabbit L-CL2 gene (Accession No.: NM_001082095) and Rabbit GAPDH gene (Accession No.: NM_001082253). The expression level of L-CL2 gene of each of the drug-treated cells was corrected with expression of each GAPDH gene and expressed as the relative ratio to the expression level of cells treated with base (D/F medium containing 0.1% DMSO).

[2] = Pharmacokinetics Study (2): nandrolone concentration in the lacrimal glands after nandrolone decanoate to eyelid skin or instillation; format: in vivo, Rabbits (Japanese White, males); details: 2, 4, 8, 24 hours, LC-MS/MS, FIG. 2
Protocol: A study was conducted for change over time of nandrolone concentration in the lacrimal glands after administration of nandrolone decanoate to eyelid skin, or instillation thereof.
0.4 g of nandrolone decanoate were added to castor oil followed by bringing to a volume of 20 mL and dissolving therein to prepare an ointment containing 2% (w/v) of nandrolone decanoate. In addition, a preparation of the same composition was used as an ophthalmic solution containing nandrolone decanoate.
Rabbits (Japanese White, males, purchased from Kitayama Labes Co., Ltd.) were used in the study. Fur of the right upper eyelid was shaved by using an electric hair clipper under general anesthesia on the day before drug administration followed by fitting the rabbits with Elizabethan collars prior to administration. […]
The rabbits were euthanized at 2, 4, 8 and 24 hours after administration and the right upper lacrimal gland tissue was excised (from 3 animals at each time). The lacrimal gland tissue was homogenized in methanol and the concentration of nandrolone (active form of nandrolone decanoate) in the centrifuged supernatant was measured by LC-MS/MS. The concentration of nandrolone in the lacrimal gland tissue was calculated from the wet weight of the tissue measured prior to homogenization and the concentration of nandrolone in the measured specimen.

[3] = test system: TL in tears; assay: Pharmacological Study (1): amount of TL in tears after administration to eyelid skin; format: in vivo, Rabbits (Japanese White, females); details: cream 1% (w/v), eyelid skin of one eye, once per day 40 μL, two weeks after application vs before; rabbits with lower lacrimal gland and nictitating membrane excised, ketoconazole; mean ± standard error, n=4
Protocol: A study was conducted in rabbits as to whether or not the administration of nandrolone decanoate and methenolone acetate to eyelid skin increases the amount of TL in tears.
A cream containing 1% (w/v) of nandrolone decanoate, a cream containing 1% (w/v) of methenolone acetate and a base were prepared in the manner of the compositions indicated in Table 1.
Rabbits (Japanese White, females, purchased from Kitayama Labes Co., Ltd.) were used in the study. […]
Schirmer test paper (Showa Yakuhin Kako Co., Ltd.) was inserted into the conjunctival sac of the lower eyelid before application and two weeks after application to collect tears, followed by subjecting each of the collected tear specimens to slab gel electrophoresis. Following electrophoresis, the gel was stained with Coomassie Brilliant Blue stain, all protein bands, including the TL band at a molecular weight of about 17 kilodaltons, were detected, and the percentage of TL (% TL) in the total amount of protein present in the tears was calculated by image analysis of the resulting gel. The difference between the % TL before application and the % TL after application was determined for each individual and expressed as an increase in % TL (A % TL).

## CCCCCCCCCC(=O)O[C@H]1CC[C@H]2[C@@H]3CCC4=CC(=O)CC[C@@H]4[C@H]3CC[C@]12C [Nandrolone decanoate, 17β-decanoyloxy-19-nor-4-androsten-3-one]
[1]
  expression of L-CL2 gene (corrected with GAPDH, relative ratio to base-treated cells): increases expression of L-CL2 gene in lacrimal gland cells
[2]; single 50 μL ointment 2% (w/v) nandrolone decanoate to right upper eyelid skin
  concentration of nandrolone in the lacrimal gland over time: somewhat lower than the concentration of methenolone in lacrimal gland tissue after administration of methenolone acetate to eyelid skin
[2]; single 50 μL ophthalmic solution 2% (w/v) nandrolone decanoate by instillation into right eye
  concentration of nandrolone in the lacrimal gland over time: much lower than in the case of administration to eyelid skin
[3]
  Δ % TL (increase in percentage of TL in total tear protein): 4.30 ± 0.473%
